Experimental data taken from patent publication US20130023681A1, “STABILIZED DOXERCALCIFEROL AND PROCESS FOR MANUFACTURING THE SAME” (ALPHORA RESEARCH INC., priority 2010, published 2013).
Entries after “also recorded” stand apart in the source; their conditions may differ.

Experiments:
[1] = Accelerated storage study (HPLC analysis of stored samples); type: physicochemical
Method: (§1) Samples of material generated by the aforementioned procedure were quarantined, stored and subjected to 2 stability studies:
(§2) Both studies employed ICH-compliant stability chambers for controlled storage, and the following HPLC method for analysis of samples:
(§3) HPLC Detector/wavelength: Photo Diode Array Detector/190-400 nm
(§4) Column: Waters SUNFIRE C18, 4.6 by 150 mm, 3.5 μm
(§5) Column/sample Temperature: 25° C./5° C.
(§6) Flow Rate/injection volume: 1.2 mL per min/10.00 μL
(§7) Sample concentration: 1 mg/mL
(§8) Diluent: Water: DCM: MeOH: ACN (10: 5: 10: 75)
(§9) Eluent: A (H2O); B (ACN); C (MeOH)
Samples were subjected to the following conditions: 25±2° C./60±2% R.H., Argon headspace. Samples were stored in ICH-compliant stability chambers, sampled at 1, 3 and 6 months, and analyzed using the described HPLC method.

[2] = Long term stability study (HPLC analysis of stored samples); type: physicochemical
Method: as §1, §2, §3, §4, §5, §6, §7, §8, §9
Samples were subjected to the following conditions: 5±3° C. Argon headspace, −20±5° C., Argon headspace. Samples were stored in ICH-compliant stability chambers, sampled at 1, 3, 6 and 9 months, and analyzed using the described HPLC method.

In the case of `C=C1/C(=C\C=C2/CCC[C@]3(C)[C@@H]([C@H](C)/C=C/[C@H](C)C(C)C)CC[C@@H]23)C[C@@H](O)C[C@@H]1O` [1α-hydroxyvitamin D2], the “HPLC purity after accelerated storage” value ([1]; 25±2° C./60±2% R.H., Argon headspace, time-points 1, 3 and 6 months, initial (t=0) HPLC a/a purity >99.0% a/a) is reported as at least 99.0%, the “HPLC assay after accelerated storage” value ([1]; 25±2° C./60±2% R.H., Argon headspace, time-points 1, 3 and 6 months, initial (t=0) HPLC w/w assay >99.0% w/w) is reported as at least 99.0 % w/w and the “Change in purity on accelerated storage (in words)” value ([1]; samples of purity 99% and above, 1, 3 and 6 months at 25±2° C., relative humidity 60±2%, argon headspace) is reported as “no reduction in purity”. The “HPLC purity after long term storage” value ([2]; 5±3° C. Argon headspace, −20±5° C. Argon headspace, time-points 1, 3, 6 and 9 months, initial (t=0) HPLC a/a purity >99.0% a/a) was at least 99.0%, the “HPLC assay after long term storage” value ([2]; 5±3° C. Argon headspace, −20±5° C. Argon headspace, time-points 1, 3, 6 and 9 months, initial (t=0) HPLC w/w assay >99.0% w/w) was at least 99.0 % w/w and the “Change in purity / stability in ICH stability studies (in words)” value ([2]; samples of purity 99% and above, six months under argon headspace at either −20±5° C. or 5±3° C.) was “unexpectedly high stability; also recorded: no reduction in purity”.
